Results from US20100003217A1, “Compounds and Pharmaceutical Compositions for the Treatment of Viral Infections” (priority 2008, published 2010).
Where “and” joins values, the source holds several entries; their conditions need not be identical. Identical values can stand only once.

Key:
[1] = Excretion of administered dose in rat urine and feces; format: in vivo, male Sprague-Dawley rats
Protocol: Isotopically diluted [^14C]-Compound 1 was administered intravenously to male Sprague-Dawley rats at 50 mg/kg or by oral gavage at 100 mg/kg.
Percent of the administered dose (% AD) for parent drug and each metabolite at each collection period=(% of the total radioactivity in the sample attributed to the metabolite)*(total radioactivity expressed as % of the administered dose, recovered during the corresponding collection period).
The urine and feces of each animal were analyzed for radiolabel content.

[2] = as above; format: in vivo, male Sprague-Dawley rats; settings: IV; 24 h after [14C]Compound 1
[3] = Metabolite profiling in monkey liver microsomes; format: in vitro ADME; design: key: +: peak detected; ?: peak observed; ND: not detected; settings: 50 μM Compound 1, 2 hours
Protocol: Preliminary identification of putative metabolites was conducted by comparing the retention time of observed metabolites with retention times obtained with chemically synthesized standards using the following HPLC-UV method:
Incubations with liver microsomes, liver cytosol or pig liver esterase were conducted in a final volume of 0.1 mL per incubation time point. Pooled microsomal protein (1.0 mg/mL) suspended in incubation buffer (0.1 M potassium phosphate, pH 7.4) was incubated for 2 hours at 37° C. with 50 μM Compound 1 from a stock solution in DMSO (final DMSO concentration was 0.1%); the microsomal reaction was initiated by the addition of an NADPH regenerating system (1.3 mM NADP^+, 3.3 mM glucose-6-phosphate, 0.4 U/ml glucose-6-phosphate dehydrogenase, and 3.3 mM MgCl2, final concentrations). Incubations with no NADPH or no protein served as controls. Reactions were terminated by the addition of 0.1 mL of stop solution (acetonitrile). The samples were vortex-mixed for 30 sec and then centrifuged at 10,000×g for 10 min. The supernatant was dried using a Labconco CentriVap concentrator and the dry residue reconstituted in water, transferred to an HPLC glass vial and analyzed by HPLC-UV method 2 (described above).
Results: Preliminary identification was accomplished by comparing LC elution of metabolites with that of available synthetic standards of putative metabolites (FIG. 2). Metabolites U1, U2 and U3 were characterized based on the retention times.

[4] = Incubation with monkey liver cytosol; format: in vitro ADME; settings: monkey cytosol 1 mg/mL, 2 hours, 10 μM
Protocol: (§1) Pooled liver cytosol (1.0 mg protein/mL) suspended in incubation buffer (0.1 M potassium phosphate, pH 7.4) was incubated for 2 hours at 37° C. with 10 μM Compound 1 from a stock solution in DMSO (final DMSO concentration was 0.1%); reaction was initiated with the addition of test article. Incubations with no protein served as control. Reactions were terminated by the addition of 0.1 mL of stop solution (acetonitrile). The samples were vortex-mixed for 30 sec and then centrifuged at 10,000×g for 10 min. The supernatant was dried using a Labconco CentriVap concentrator and the dry residue reconstituted in water, transferred to an HPLC glass vial and analyzed by HPLC-UV method 2 (described above).
(§2) Metabolic stability of the proposed metabolites was conducted by incubating the chemically synthesized standards Compound 2, Compound 4 and Compound 3 as described above for Compound 1. When possible, formation of Compound 5 was verified by incubating samples with alkaline phosphatase (10 U) for 60 min at 37° C.

[5] = Incubation with human liver cytosol; format: in vitro ADME; settings: human cytosol 1 mg/mL, 2 hours, 10 μM
Protocol: as §1, §2

[6] = Metabolite profile in rat urine; format: in vivo, male Sprague-Dawley rats; settings: for Percent of Dose, Urine 0-24 h: after [14C]Compound 1; for % AD, estimated: from single animal HPLC distribution and mean % AD
[7] = Incubation with rat liver cytosol; format: in vitro ADME; settings: rat cytosol 1 mg/mL, 2 hours, 10 μM
Protocol: as §1, §2

[8] = rat, Group 1A: IV 50 mg/kg, termination 2 h
[9] = rat, Group 1B: IV 50 mg/kg, termination 6 h
[10] = rat, Group 1C: IV 50 mg/kg, termination 24 h
[11] = rat, Group 2A: PO 100 mg/kg, termination 2 h
[12] = rat, Group 2B: PO 100 mg/kg, termination 6 h
[13] = rat, Group 2C: PO 100 mg/kg, termination 24 h
[14] = PO dose urine, 1 h collection, single animal (#15, Group 2A)
[15] = PO dose urine, 2 h collection, single animal (#20, Group 2B)
[16] = estimated profile table, group 2C (PO dose) urine, 24 h
[17] = group 1C (IV dose) pooled urine, 1 h collection
[18] = group 1C (IV dose) pooled urine, 2 h collection
[19] = group 1C (IV dose) pooled urine, 6 h collection
[20] = group 1C (IV dose) pooled urine, 24 h collection
[21] = group 2C (PO dose) pooled urine, 24 h collection

## CC(C)(CO)C(=O)SCCOP(=O)(NCc1ccccc1)OC[C@H]1O[C@@H](n2cnc3c(=O)[nH]c(N)nc32)[C@](C)(O)[C@@H]1O (mixture of isomers) [Compound 1, 3-hydroxy-2,2-dimethyl-thiopropionic acid S-(2-{[(2R,3R,4R,5R)-5-(2-amino-6-oxo-1,6-dihydro-purin-9-yl)-3,4-dihydroxy-4-methyl-tetrahydro-furan-2-ylmethoxy]-benzylamino-phosphoryloxy}-ethyl) ester]
[1]; IV (1C)
  Total excretion (% AD), total (urine + feces): 45.9 % AD
[1]; Oral, 24 h after [14C]Compound 1
  Percent of Dose, Total (urine, feces and liver): 65.6% of Dose
[1]; PO (2C), urine data estimated
  Total excretion (% AD), total (urine + feces): 65.6 % AD
[1]; rat, IV dose
  Total excretion (urine + feces), % of the administered dose: 45.9%
[1]; rat, IV dose, 24 h
  radioactivity recovered in feces (% of dose): 39%
  radioactivity recovered in urine (% of dose): 47%
[1]; rat, PO dose
  Total excretion (urine + feces), % of the administered dose: 65.6%
[1]; [8]
  Fecal Excretion (% AD): 0.05 ± 0.08 % AD
  Urinary + Fecal Excretion (% AD): 26.0 ± 2.3 % AD
  Urinary Excretion (% AD): 25.9 ± 2.4 % AD
[1]; [9]
  Fecal Excretion (% AD): 0.13 ± 012 % AD
  Urinary + Fecal Excretion (% AD): 27.8 ± 4.9 % AD
  Urinary Excretion (% AD): 27.7 ± 4.9 % AD
[1]; [10]
  Fecal Excretion (% AD): 39.0 ± 4.0 % AD
  Urinary + Fecal Excretion (% AD): 86.0 ± 4.8 % AD
  Urinary Excretion (% AD): 46.9 ± 4.1 % AD
[1]; [11]
  Fecal Excretion (% AD): 0.001 ± 0.001 % AD
  Urinary + Fecal Excretion (% AD): 0.05 ± 0.06 % AD
  Urinary Excretion (% AD): 0.05 ± 0.06 % AD
[1]; [12]
  Fecal Excretion (% AD): 0.006 ± 0.005 % AD
  Urinary + Fecal Excretion (% AD): 0.36 ± 0.18 % AD
  Urinary Excretion (% AD): 0.36 ± 0.18 % AD
[1]; [13]
  Fecal Excretion (% AD): 91.3 ± 8.7 % AD
  Urinary + Fecal Excretion (% AD): 94.1 ± 8.9 % AD
  Urinary Excretion (% AD): 2.84 ± 0.82 % AD
[2]
  Percent of Dose, Total (urine, feces and liver): 45.9% of Dose
[3]
  In vitro metabolite profile in microsomes following incubation with Compound 1 (peak detection): +
[4]
  Residual compound following incubation with liver cytosol: 100%
[5]
  Residual compound following incubation with liver cytosol: 100%
[6]; IV (1C)
  Total excretion (% AD), urine: 26.1 % AD
[6]; IV
  Percent of Dose, Urine 0-24 h: 26.1% of Dose
[6]; Oral
  Percent of Dose, Urine 0-24 h: 0.02% of Dose
[6]; PO (2C), urine data estimated
  Total excretion (% AD), urine: 0.02 % AD
[6]; [14]
  % AD (percent of administered dose): 0.06 % AD
  % HPLC (percent of HPLC peak area in the sample extract): 74.8%
[6]; [15]
  % AD (percent of administered dose): 0.01 % AD
  % HPLC (percent of HPLC peak area in the sample extract): 6.57%
[6]; [16]
  % AD: 0.01 % AD
  % HPLC (percent of HPLC peak area in the sample extract): 0.30%
[6]; estimated profile, group 2C (PO dose) urine
  % of total urinary excretion, estimated: 0.73%
[6]; estimated profile, group 2C (PO dose) urine, 1 h
  % AD, estimated: 0.01 % AD
[6]; estimated profile, group 2C (PO dose) urine, 1 h, single animal % HPLC distribution
  % HPLC (percent of HPLC peak area in the sample extract): 74.8%
[6]; estimated profile, group 2C (PO dose) urine, 2 h
  % AD, estimated: 0.003 % AD
[6]; estimated profile, group 2C (PO dose) urine, 2 h, single animal % HPLC distribution
  % HPLC (percent of HPLC peak area in the sample extract): 6.57%
[6]; estimated profile, group 2C (PO dose) urine, total of all collections
  Total % AD, estimated: 0.02 % AD
[6]; [17]
  % AD (percent of administered dose): 21.39 % AD
  % HPLC (percent of HPLC peak area in the sample extract): 93.5%
[6]; [18]
  % AD (percent of administered dose): 2.50 % AD
  % HPLC (percent of HPLC peak area in the sample extract): 48.9%
[6]; [19]
  % AD (percent of administered dose): 0.71 % AD
  % HPLC (percent of HPLC peak area in the sample extract): 30.5%
[6]; [20]
  % AD (percent of administered dose): 1.51 % AD
  % HPLC (percent of HPLC peak area in the sample extract): 9.09%
[6]; group 1C (IV dose) urine
  % of total urinary excretion: 55.6%
[6]; group 1C (IV dose) urine, total of all collections
  Total % AD: 26.1 % AD
[6]; [21]
  % AD (percent of administered dose): 0.01 % AD
  % HPLC (percent of HPLC peak area in the sample extract): 0.30%
[6]; rat urine, IV dose 50 mg/kg
  % of the total urinary excretion: 55.6%
[6]; rat urine, IV dose 50 mg/kg, 0-24 h, 50 mg/kg
  urinary component, % of the administered dose (% AD): 26.1 % AD and 26 % AD
[6]; rat urine, PO dose 100 mg/kg, 0-24 h
  urinary component, estimated % of the administered dose (% AD): 0.02 % AD
[6]; rat urine, PO dose, 1-h time point
  % of the total radioactivity eliminated via urine within one hour: 74.8%
[6]; rat urine, PO dose, 6 h
  % of the total urinary excretion by 6 h: 6.6%
[7]
  Residual compound following incubation with liver cytosol: 100%
